Reference: patent US11807852B2, “Compositions and methods for reactivating latent immunodeficiency virus” (The J. David Gladstone Institutes, a testamentary trust …, priority 2014, dated 2023)
Read-outs that look alike come from different tables or passages of the source.

How the values were obtained:
[1] = test system: CD4+ T cells from HIV-1-infected individuals; assay: T-cell activation markers CD69 and CD25, flow cytometry; type: cell-based, human; settings: at the indicated concentrations (up to 500 nM)
Excerpt: FIGS. 15 A-G depict the structural formulae for AZ505, AZ506, and AZ391, and the reactivation of latent HIV-1 with SMYD2 inhibitor X2 (AZ391) in CD4^+ T cells from HIV-1 infected individuals. (A) Structures of each compound are shown. (B) Intracellular HIV-1 mRNA levels in CD4^+ T cells, obtained from an infected individual (#1036) and treated ex vivo with AZ391, JQ1 or a combination of both, in indicated concentrations, presented as fold induction relative to DMSO control. Activation with αCD3/αCD28-Dynabeads was performed as control. (C) Flow cytometry of T-cell activation markers CD69 and CD25 in the same experiment. For each treatment group, CD69^+ (left) and CD25^+ (right). Shown as percentage of positive cells relative to αCD3/αCD28-treated cells (D) Cell viability as measured by CellTiter-Blue® Cell Viability assay (Promega) and Zombie Violet Fixable Viability kit (BioLegend) and presented as percentage of DMSO control treated cells. Data points indicate average of three technical replicates of donor #1036. (E-G) Same experiments as in b-d but performed with CD4^+ T cells obtained from three additional individuals (2013, 2185, 2511) with a single concentration of AZ391 (500 nM). In f and g, average of the three biological replicates (±SD) is show. For (F), for each treatment group, CD69^+ (left) and CD25^+ (right). […]

[2] = test system: J-Lat A72 cell line (LTR-GFP); settings: A72 J-Lat cells; for activation of GFP expression / reactivation of the HIV-LTR: single agent
Description: J-Lat (clones A2 and A72) cell lines were cultured as described in Jordan et al., EMBO J. 2003 Apr. 15:22(8):1868-77. Human αCD3/αCD28 beads (Life Technologies) were used at a concentration of 1 bead/cell ratio. JQ1 (Sigma-Aldrich) was used at a concentration of 0.1-10 μM. Ingenol 3,20-dibenzoate (Sigma-Aldrich) was used at concentrations of 5-200 nM, and SAHA (Sigma-Aldrich) was used at concentrations of 110 nM, 330 nM, or 1 μM.
HEK293T cells were obtained from the American Type Culture Collection. J-Lat (clones A2, A72, and 5A8) cell lines were described (Chan et al., 2013; Jordan et al., 2003). HEK293T cells were cultured in DMEM supplemented with 10% FBS, 1% L-glutamine and 1% penicillin-streptomycin (Life Technologies). J-Lat cells were cultured in RPMI supplemented with 10% FBS, 1% L-glutamine and 1% penicillin-streptomycin (Life Technologies). […] TNFα (Sigma-Aldrich) was used at 0.5-10 ng/ml. Human αCD3/αCD28 Dynabeads (Invitrogen) were used at a 1 bead/cell ratio. JQ1 (Cayman Chemical) was used at 0.1-10 μM. Ingenol 3,20-dibenzoate (Santa Cruz Biotechnology) was used at 5-200 nM, and SAHA (Merck) was used at 110 nM, 330 nM, or 1 μM. Phorbol 12-myristate 13-acetate (PMA) (Sigma) was used at 10 nM and ionomycin (Sigma) was used at a concentration of 500 nM. UNC926 (Tocris Bioscience) was used at a concentration of 10 nM-100 μM. AZ505. AZ506, and AZ391 were used at a concentration of 10 nM-10 μM.
ShRNA-expressing lentiviral vectors were purchased from Sigma-Aldrich. The pLKO.1 vector containing a scrambled shRNA was used as control. […] J-Lat 5A8, A72 and A2 cells were spininfected with virus (1 ng of p24 per 10^6 cells) containing shRNAs against KMTs or nontargeting control shRNAs and were selected with puronycin (2 μg/ml: Sigma). After 7 days of selection, cells were treated with the indicated concentration of drugs. The percentage of GFP^+ cells was determined after 18 h using a MACSQuant VYB FACS analyzer (Miltenyi Biotech GmbH). Cell viability was monitored by forward-and-side scatter analysis. Analysis was conducted on 3×10,000 live cells per condition. Data were analyzed using FlowJo 9.5 (Tree Star).

[3] = test system: latent HIV-1 in human lymphocyte aggregate cultures (HLAC) from tonsils; assay: Ex vivo infected tonsil HLAC latency model, HIV-luciferase reporter virus; type: cell-based; settings: in combination with JQ1
Description: HLAC cells were isolated by Ficoll-Histopaque density gradient centrifugation of sheared tonsils from HIV-seronegative donors (Vanderbilt University Medical Center, Nashville, Tenn.). Isolated HLAC cells were counted, collected as pellets by centrifugation at 1500 rpm for 5 min at room temperature, and re-suspended in the appropriate volume of concentrated viral NL4.3-Luc supernatant. Typically, 50-100 ng of p24 Gag per […] HLAC were used. Spinoculations were performed in 96-well V-bottom plates in volumes of 200 μl or less. Cells and virus were centrifuged at 2000 rpm for 1.5-2 h at room temperature. After spinoculation, cells were pooled and cultured at 1×10^6 cells/ml in RPMI 1640 containing 10% FBS and supplemented with 5 μM Saquinavir (Sigma-Aldrich) for 3 days to prevent any residual spreading infection.
For reactivation of latent HIV-1 provirus, cells were counted and collected as pellets by centrifugation at 1500 rpm for 10 min. […] After 15 min of lysis, the luciferase activity in cell extracts was quantified with a Perkin Elmer EnSpire 2300 Multimode plate reader after mixing 20 μl of lysate with 100 μl of substrate (Luciferase Assay System-Promega). Relative light units (RLU) were normalized to protein content determined by Bradford assay (BioRad). Cell viability was measured with CellTiter-Blue Cell Viability Assay (Promega).

SMILES: N#Cc1cc(C(=O)NCCCN2CCCC2)cc(-c2ccccc2N2CCN(CCc3c[nH]c4ccccc34)CC2)c1 [AZ391]
- global T-cell activation (CD69, CD25) [1]: No increase in global T-cell activation
- reactivation of HIV-LTR, combination effect ([2]; co-treatment with JQ1): more than additive effects
- reactivation of HIV-LTR, combination effect ([2]; co-treatment with SAHA): less
- reactivation of HIV-LTR, combination effect ([2]; co-treatment with ingenol 3,20-dibenzoate): practically no combination effect
- GFP+ cells ([2]; high concentrations (5 and 10 μM)): up to 30%
- activation of GFP expression / reactivation of the HIV-LTR [2]: activated GFP expression at high concentrations
- activation of GFP expression / reactivation of the HIV-LTR ([2]; listed as X2): the same effect was observed in A72 cells
- reactivation of latent HIV-1 (luciferase) [3]: Positive effects
- reactivation of latent HIV-1 (luciferase) ([3]; listed as X2): reactivates latent HIV-1
